From patent US7704723B2, “Isolation and characterization of novel clostridial species” (The Board of Regents For Oklahoma State University, priority 2006, dated 2010)
In brackets after ≈: the same amount, converted by molar mass. Where a name gives a salt, the structure may show the parent alone.

Assays:
strain P11 [1] = assay: Trace metals elimination (0x) and addition (10x) in CO medium; format: cell-based, Clostridium ragsdalei; conditions: for Acetate production on elimination of the metal / CO metabolism on elimination of the metal / Increase in solvent to acid ratio on elimination of the metal: 0x metal in COM; for CO metabolism at increased level of the metal: 10x metal in COM, especially after a 48 hour feeding
Procedure: Bacterial Strain and Cultivation Media. Clostridial strain P11 was used throughout the study. […] The growth temperature was 37° C. […] Analytical methods. […] Milton Roy) in aluminum seal tubes (Balch & Wolfe, 1976). […] Hydrogen ion concentration was measured by electrode. Trace metals. […] Triplicate tubes of unamended (1×) and amended (0× and 10×) media were inoculated with strain P11 where each of these individual trace metals were added to or eliminated from the COM at 10× and 0× the original metal concentration. The cultures were fed every 48 hours with CO. This was also completed in duplicate in 160 mL serum bottles to simulate small scale batch conditions. Stock solutions were prepared for each of the above metals and added during the media preparation before boiling and degassing. […] In order to adapt cells to the higher concentrations of metals, at least 2 transfers were made for each set-up. This experiment was performed in triplicate and growth was measured over 7 days after which pH and ethanol concentration analyses were completed.

strain P11 [2] = assay: microbe, parasite or virus in culture
Procedure: (§1) Bacterial Strain and Cultivation Media. Clostridial strain P11 was used throughout the study. Carbon monoxide medium (COM) was used to cultivate and maintain the culture. The growth temperature was 37° C. COM is an undefined buffered medium initially pressurized to 10 psi (70 kPa) with N2/CO2 and then autoclaved for 15 minutes at 121° C. The medium contained per liter of distilled water: 25 ml mineral solution (Table 1), 10 ml trace metals solution (Table 2, 10 ml vitamin solution (Table 3), 1.0 g of yeast extract, 10 g of MES (2-[N-morpholino]ethanesulfonic acid), 0.001 g resazurin, 4.0 g cysteine.HCl, and 4.0 Na2S.9H2O; the initial pH of this medium was 6.1-6.3. The medium was prepared using strict anaerobic technique (Balch & Wolfe, 1976). Carbon monoxide was the sole substrate provided at 210 kPa (30 psi). Unless otherwise noted all growth experiments were conducted under a pressure of 30 psi with CO as the sole or primary substrate and were incubated horizontally to maximize gas diffusion into the medium. Standard inoculum size was about 2% (v/v) transferred from a stock culture that was growing in mid to late exponential phase, unless otherwise noted.
(§2) Analytical methods. Growth was measured spectrophotometrically at 600 nm (Spectronic 20D; Milton Roy) in aluminum seal tubes (Balch & Wolfe, 1976). Acetate and ethanol were measured simultaneously by a gas chromatograph (GC) equipped with a flame ionization detector (FID) on a Varian 3400 equipped with a 2 m steel column packed with an 80/120 Carbopak B-DA/4% carbowax resin 20M (Supelco, Bellfonte, Pa.). The column, injector, and detector temperature were 155, 200, and 200° C. respectively. Helium was the carrier gas and the flow rate was set at 30 ml min^−1. Hydrogen ion concentration was measured by electrode.
Ethanol tolerance. The effect of ethanol on CO metabolism and solvent production was investigated with strain P11. The initial maximum concentration at which strain P11 could survive was determined during the course of these studies. […] Liquid samples (1.0 mL) were extracted once the cells remained at stationary phase and stored frozen (−20° C.) until analyzed by GC and HPLC. After the maximum ethanol concentration for cell survival was determined semi-continuous batch culture experiments were conducted using 500 mL serum bottles containing between 100-200 mL of COM containing different concentrations of ethanol (20, 30, 40, and 50 g/L) to adapt strain P11 to high solvent conditions. The amended COM with ethanol was prepared by adding filter sterilized ethanol to pre-sterilized Balch tubes, and then purging with N/CO2 to remove oxygen. After the media was sterilized, the ethanol was then added to the appropriate concentrations. These bottles were inoculated with the P11 cells from the semi-continuous batch cultures that were already established above. Growth and pH were measured periodically. A portion of the medium extracted for those measurements was taken for analyses of ethanol and acetate concentrations.

[3] = tested on: Clostridium ragsdalei strain P11; assay: Growth of strain P11 on organic and gaseous substrates as sole carbon and energy sources; format: cell-based; conditions: Clostridium ragsdalei; malate and formate examined at pH 5.0-6.5
Procedure: Except for the deletion of NaHCO3 and an initial pH 6.3, growth on organic and gaseous substrates was performed as previously described (Tanner et. al., 1993). Resazurin (1 mg/L) was used as the redox indicator. Purified agar was added to the medium at a concentration of 2% for colony morphology description (Table 5). Heat labile substrates were filter sterilized (not autoclaved) and added from sterile stock solutions to a final concentration of 5 g/L before inoculation. The optimum temperature and pH (initial pH) was determined in medium containing fructose as the substrate. For determination of the optimum pH, media was buffered with HOMOPIPES (homopiperazine-N,N′-bis-2-[ethanesulfonic acid] (Research Organics, Cleveland, Ohio), MES (2-[N-morpholino]ethanesulfonic acid), or TES (N-tris [hydroxymethyl]methyl-2-aminoethanesulfonic acid) at (1.0 g/L). A 0.1 ml (˜2%) inoculum of fructose-grown cells was used to initiate growth. All media components used in these experiments were obtained from Sigma unless otherwise noted (Sigma Chemical Co., St. Louis, Mo.).
Analytical methods. […] For the substrate malate, utilization was analyzed by HPLC (“high-performance liquid chromatography”) equipped with a UV detector set at 214 nm using a Alltech, Prevail Organic Acid column (4.6×150 mm, 5 μm; Alltech, Deerfield, Mich.) with a mobile phase of 25 mM KH2PO4, pH 2.5 and 10% (v/v) methanol.

thermophilic clostridium = conditions: cited from earlier work
strain P11 [4] = assay: Metabolic inhibitor studies (FA/TFA) in CO medium; format: cell-based, Clostridium ragsdalei; conditions: for Ethanol production compared to the control strains: P11 in the presence of the inhibitor, identical conditions
Procedure: as §1, §2
Metabolic Inhibitor Studies. Filter sterilized anaerobic stock solutions of fluoroacetate (FA) and trifluoroacetate (TFA) (Sigma Chemical Co.) were prepared to final concentrations of 4.5M. Before preparation, the FA and TFA powders were allowed to sit overnight in small beakers in the anaerobic chamber to allow any trapped oxygen to diffuse from the powder. […] The inhibitors were usually added to the medium one day prior to inoculating with P11 to ensure anaerobicity was maintained. All additions were made anaerobically by syringe. During this study growth was measured periodically by spectroscopy. Toward the end of resting cell phase, liquid samples (1 mL) were taken and stored frozen (−20° C.) until analyzed by GC and HPLC.

[5] = iron increased tenfold compared to standard medium

[Cu] [Cu, copper]
Acetate production on elimination of the metal (strain P11 [1]): decreased acetate production | CO metabolism on elimination of the metal (strain P11 [1]): limited CO metabolism | CO metabolism at increased level of the metal (strain P11 [1]): stimulated CO metabolism

Iron [Fe]
CO metabolism on elimination of the metal (strain P11 [1]): limited CO metabolism | Increase in solvent to acid ratio on elimination of the metal (strain P11 [1]): ~300% | CO metabolism at increased level of the metal (strain P11 [1]): stimulated CO metabolism | Concentration of ethanol produced (strain P11 [1]; [5]): doubles the concentration of ethanol produced | Production of acetic acid (strain P11 [1]; [5]): decreasing the production of acetic acid

CCO [Ethanol]
MIC (strain P11 [2]; Clostridium ragsdalei, P11, read-out: Minimum inhibitory concentration): 35 mg/mL (≈ 760 mM) | Growth at the 50 g/L ethanol concentration (strain P11 [2]; adapted semi-continuous batch culture): ≤ 0.55 OD units | Growth relative to the unamended control without ethanol (strain P11 [2]; all ethanol concentrations, 15-35 g/L): Growth was retarded | Ethanol concentration at which the adapted culture functions fully (strain P11 [2]; culture adapted to ethanol): 50 grams per liter | Highest ethanol concentration at which the adapted culture was established (strain P11 [2]; semi-continuous batch culture, stepwise adaptation from 20 g/L): 50 g/L | Ethanol concentration in which P11 remains viable and will grow (strain P11 [2]; statement in the description): at least 60 g/L | Ethanol concentration initially tolerated (strain P11 [2]; strain P11, not adapted): up to 30 g/L | Ethanol concentration that inhibited strain P11 (strain P11 [2]; upon initial isolation): 30 grams per liter | Growth with substrate [3]: chemoorganotrophic growth was observed

O=C(O)CF [FA, fluoroacetate]
Concentration shown to inhibit growth (thermophilic clostridium): 50 mM | Decrease of acetate production (strain P11 [4]; 30 mM FA and above): nearly ninety percent | Decrease of ethanol production (strain P11 [4]; 30 mM FA and above): fifty | Decrease of growth yield (strain P11 [4]; 30 mM FA and above): forty percent | Increase of ethanol to acetate ratio (strain P11 [4]; 30 mM FA and above): eighty percent | Growth yield (OD) or end products relative to the P11 control (strain P11 [4]; COM containing 20 mM FA): no significant differences | MIC (strain P11 [4]; Clostridium ragsdalei, strain P11 in COM, CO substrate, read-out: MIC (minimum inhibitory concentration)): 100 mM (≈ 7800 µg/mL) | Ethanol production compared to the control strains (strain P11 [4]): increase of ethanol production | Acetate (strain P11 [4]; P11 with 15 mM FA): 48.72 mM | Ethanol (strain P11 [4]; P11 with 15 mM FA): 39.62 mM | Final OD 600 (strain P11 [4]; P11 with 15 mM FA): 0.741

O=C(O)C(F)(F)F [TFA, trifluoroacetate]
Growth yield (strain P11 [4]; COM containing 30 mM TFA): remained unchanged | Increase in acetate produced (strain P11 [4]; COM containing 30 mM TFA): 52% | Increase in ethanol produced (strain P11 [4]; COM containing 30 mM TFA): 126% | Increase of solvent to acid ratio (strain P11 [4]; COM containing 30 mM TFA): 50% | Ethanol production compared to the control strains (strain P11 [4]): increase of ethanol production | Acetate (strain P11 [4]; P11 with 60 mM TFA): 34.58 mM | Ethanol (strain P11 [4]; P11 with 60 mM TFA): 45.60 mM | Final OD 600 (strain P11 [4]; P11 with 60 mM TFA): 0.641 | MIC (minimum inhibitory concentration) (strain P11 [4]; strain P11 in COM, CO substrate): 150 mM

[Ni] [Ni, nickel]
CO metabolism on elimination of the metal (strain P11 [1]): limited CO metabolism | Increase in solvent to acid ratio on elimination of the metal (strain P11 [1]): ~400% | CO metabolism at increased level of the metal (strain P11 [1]): stimulated CO metabolism

[Mo] [Mo, molybdenum]
Acetate production on elimination of the metal (strain P11 [1]): increased acetate production | CO metabolism on elimination of the metal (strain P11 [1]): CO metabolism increased slightly | CO metabolism at increased level of the metal (strain P11 [1]): stimulated CO metabolism
